Measured values reported in patent US20260048051A1, “TREATMENT OF INFLAMMATORY BOWEL DISEASE” (Atomwise Inc., priority 2024, published 2026).
Where two headings read alike, the source gives them in different places.

Experiment: Plasma and tissue distribution in SD rats
Assay type: in vivo
Conditions: for Kp / AUC(0-t): rat, 10 mg/kg; for AUC(0-t): plasma
Excerpt: The following Example describes the methods and data used to evaluate the tissue distribution of TYK2 inhibitors following the administration of either compound 1 or compound 2.
Thirty (30, 15/sex) SD rats supplied by Beijing Vital River Laboratory Animal Technology Co., Ltd. were used in this study. The animals were confirmed to be healthy before being assigned to the study. The room (s) was controlled and monitored for relative humidity (targeted mean range 40% to 70%) and temperature (targeted mean range 20° C. to 26° C.) with 15 or above air changes/hour. The room was on a 12-hour light/dark cycle except when interruptions were necessitated by study activities. Fresh drinking water (reverses osmosis) was available to all animals, ad libitum. Certified animal diet from certified vendor was available to all animals, ad libitum.
Animals were weighed prior to dose administration to calculate the actual dose volume. The body weights were in the range from 245.39 to 276.33 g for males and 182.29 to 215.69 g for females on the first dosing day. The animals in Groups 1 and 2 received a single oral gavage administration of test compound 1. Cage-side observations for the general health condition and appearance of the animal were performed before and after dosing and at each time point of sample collection. Unusual observations were recorded throughout the duration of the study.
The vehicle was 0.5% methyl cellulose (4000 cps) in water. The formulation was prepared according to the following steps. Group 1: 25.95 mg of compound 1 was weighed into a glass vial. 5000 μL of vehicle was added into the vial and stirred for 30 min at 1700 rpm to get a homogenous opaque suspension. 5000 μL of vehicle was added into the vial and stirred for 10 min at 1700 rpm to get a homogenous opaque suspension. 5000 μL+5000 μL+5000 μL+924 μL of vehicle was added into the vial and stirred for 10 min at 1700 rpm to get a homogenous opaque suspension. Group 2: 81.66 mg of compound 1 was weighed into a glass vial. 5000 μL of vehicle was added into the vial and stirred for 30 min at 1700 rpm to get a homogenous opaque suspension. 5000 μL of vehicle was added into the vial and stirred for 10 min at 1700 rpm to get a homogenous opaque suspension. 10 mL+10 mL+10 mL+20 mL+10 mL+10 mL+1580 μL of vehicle was added into the vial and stirred for 10 min at 1700 rpm to get a homogenous opaque suspension.
Blood (about 0.2 mL) was collected at each time point via jugular vein puncture from each study animal. The actual time for each sample collection was recorded. The acceptable deviations on sampling time were ±1 min for the time points pre-dose through 1 hour post-dose, and +5% of the nominal time for time points after 1 hour post-dose.
All blood samples were transferred into commercial tubes containing K2-EDTA. After blood was collected, the samples were placed on wet ice and processed for plasma within 60 minutes of collection by centrifugation at approximately 4° C., 3200×g for 10 minutes, and then quickly frozen over dry ice and kept at −60° C. or lower until LC-MS/MS analysis.
Following terminal blood sample collection, animals were conducted CO2 euthanasia, the chest and abdominal cavities were opened carefully lengthwise using scissors to expose the internal organs in preparation of tissue perfusion. A needle was used to puncture a small hole into the left ventricle of the heart, and then clamped with a hemostat. […] Fluid (cold 1×PBS) was infused until the liver pales (typically 2-3 minutes). Following perfusion, 14 kinds of tissues (spleen, bone marrow, adipose, brain, heart, kidney, liver, lung, skin, small intestine, large intestine, eye, gonads, and bladder) were collected from each animal, respectively.
Each tissue was weighed and homogenized on wet ice using homogenizing buffer (MeOH/15 mM PBS 1:2) at the ratio of 1:9 (1 g tissue with 9 mL buffer). The tissue homogenate was kept at −60° C. or lower until LC-MS/MS analysis. […]

[1] = female SD rat, PO 10 mg/kg, Spleen
[2] = male SD rat, PO 10 mg/kg, Bladder
[3] = male SD rat, PO 10 mg/kg, Bone Marrow
[4] = male SD rat, PO 10 mg/kg, Epididymis & Testis
[5] = male SD rat, PO 10 mg/kg, Eyeball (left and right)
[6] = male SD rat, PO 10 mg/kg, Heart
[7] = male SD rat, PO 10 mg/kg, Kidney (left and right)
[8] = male SD rat, PO 10 mg/kg, Large intestine
[9] = male SD rat, PO 10 mg/kg, Liver
[10] = male SD rat, PO 10 mg/kg, Small intestine
[11] = male SD rat, PO 10 mg/kg, Spleen
[12] = ovary and uterus, female SD rat, PO 10 mg/kg, Ovary & Uterus

C[C@@H](c1ccc(Nc2cc(Nc3ncccc3S(C)(=O)=O)ncn2)nc1)N1CC2(COC2)C1 [Compound 1, (S)—N^4-(5-(1-(2-oxa-6-azaspiro[3.3]heptan-6-yl)ethyl)pyridin-2-yl)-N^6-(3-(methylsulfonyl)pyridin-2-yl)pyrimidine-4,6-diamine] showed an AUC0-24 [1] of 22131 ng·h/g, an AUC0-inf [1] of 22145 ng·h/g and an AUC0-last [1] of 19543 ng·h/g. The Cmax [1] was 4430 ng/g, the Tmax [1] was 30 min and the half-life [1] was 157 min. For the same compound, the Kp (female, SD, bladder, po, female SD rat, PO 10 mg/kg, Bladder, Tissue AUC0-last/Plasma AUC0-last, read-out: AUC Ratio) was 5.12, the Kp (female, SD, bone marrow, po, female SD rat, PO 10 mg/kg, Bone Marrow, Tissue AUC0-last/Plasma AUC0-last, read-out: AUC Ratio) was 4.64 and the Kp (female, SD, eyeball (left and right), po, female SD rat, PO 10 mg/kg, Eyeball (left and right), Tissue AUC0-last/Plasma AUC0-last, read-out: AUC Ratio) was 0.953. The Kp (female, SD, fat, po, female SD rat, PO 10 mg/kg, Fat, Tissue AUC0-last/Plasma AUC0-last, read-out: AUC Ratio) was 0.506, the Kp (female, SD, heart, po, female SD rat, PO 10 mg/kg, Heart, Tissue AUC0-last/Plasma AUC0-last, read-out: AUC Ratio) was 1.39 and the Kp (female, SD, kidney (left and right), po, female SD rat, PO 10 mg/kg, Kidney (left and right), Tissue AUC0-last/Plasma AUC0-last, read-out: AUC Ratio) was 30.6. It also gave a Kp (female, SD, large intestine, po, female SD rat, PO 10 mg/kg, Large intestine, Tissue AUC0-last/Plasma AUC0-last, read-out: AUC Ratio) of 11.6, a Kp (female, SD, liver, po, female SD rat, PO 10 mg/kg, Liver, Tissue AUC0-last/Plasma AUC0-last, read-out: AUC Ratio) of 8.67 and a Kp (female, SD, lung, po, female SD rat, PO 10 mg/kg, Lung, Tissue AUC0-last/Plasma AUC0-last, read-out: AUC Ratio) of 2.57. It also gave a Kp (female, SD, ovary and uterus, po, female SD rat, PO 10 mg/kg, Ovary & Uterus, Tissue AUC0-last/Plasma AUC0-last, read-out: AUC Ratio) of 1.29, a Kp (female, SD, skin, po, female SD rat, PO 10 mg/kg, Skin, Tissue AUC0-last/Plasma AUC0-last, read-out: AUC Ratio) of 1.11 and a Kp (female, SD, small intestine, po, female SD rat, PO 10 mg/kg, Small intestine, Tissue AUC0-last/Plasma AUC0-last, read-out: AUC Ratio) of 17.5. The Kp (female, SD, spleen, po, female SD rat, PO 10 mg/kg, Spleen, Tissue AUC0-last/Plasma AUC0-last, read-out: AUC Ratio) was 5.73, the Kp (female, Sprague-Dawley, ovaries, oral, SD rat, Ovaries, read-out: Tissue/Plasma Ratio (AUCinf)) was 1.4 and the AUC(0-t) (female, Sprague-Dawley, po, female SD rat, PO 10 mg/kg, read-out: AUC0-24) was 3610 ng·h/mL. For the same compound, the AUC(0-t) (female, Sprague-Dawley, po, female SD rat, PO 10 mg/kg, read-out: AUC0-last) was 3410 ng·h/mL, the AUC0-24 [2] was 14526 ng·h/g and the AUC0-inf [2] was 14666 ng·h/g. For the same compound, the AUC0-last [2] was 14526 ng·h/g, the Cmax [2] was 2980 ng/g and the Tmax [2] was 120 min. For the same compound, the half-life [2] was 203 min, the AUC0-24 [3] was 10736 ng·h/g and the AUC0-inf [3] was 10835 ng·h/g. It also gave an AUC0-last [3] of 10736 ng·h/g, a Cmax [3] of 2900 ng/g and a Tmax [3] of 30 min. It also gave a half-life [3] of 211 min, an AUC0-24 [4] of 5163 ng·h/g and an AUC0-last [4] of 5163 ng·h/g. The AUC0-24 [5] was 1795 ng·h/g, the AUC0-inf [5] was 1830 ng·h/g and the AUC0-last [5] was 1332 ng·h/g. The AUC0-24 (male SD rat, PO 10 mg/kg, Fat) was 1703 ng·h/g, the AUC0-inf (male SD rat, PO 10 mg/kg, Fat) was 1716 ng·h/g and the AUC0-last (male SD rat, PO 10 mg/kg, Fat) was 1388 ng·h/g. For the same compound, the AUC0-24 [6] was 3366 ng·h/g, the AUC0-inf [6] was 3374 ng·h/g and the AUC0-last [6] was 3004 ng·h/g. For the same compound, the AUC0-24 [7] was 23128 ng·h/g, the AUC0-inf [7] was 23415 ng·h/g and the AUC0-last [7] was 23128 ng·h/g. The AUC0-24 [8] was 45091 ng·h/g, the AUC0-last [8] was 45091 ng·h/g and the AUC0-24 [9] was 20288 ng·h/g. It also gave an AUC0-inf [9] of 20534 ng·h/g, an AUC0-last [9] of 20288 ng·h/g and a Cmax [9] of 5400 ng/g. The Tmax [9] was 30 min, the half-life [9] was 232 min and the AUC0-24 (male SD rat, PO 10 mg/kg, Lung) was 5806 ng·h/g. The AUC0-inf (male SD rat, PO 10 mg/kg, Lung) was 5835 ng·h/g, the AUC0-last (male SD rat, PO 10 mg/kg, Lung) was 4926 ng·h/g and the Cmax (male SD rat, PO 10 mg/kg, Lung) was 1960 ng/g. The Tmax (male SD rat, PO 10 mg/kg, Lung) was 30 min, the half-life (male SD rat, PO 10 mg/kg, Lung) was 162 min and the AUC0-24 (male SD rat, PO 10 mg/kg, Skin) was 7864 ng·h/g. For the same compound, the AUC0-inf (male SD rat, PO 10 mg/kg, Skin) was 9352 ng·h/g, the AUC0-last (male SD rat, PO 10 mg/kg, Skin) was 7864 ng·h/g and the Cmax (male SD rat, PO 10 mg/kg, Skin) was 868 ng/g. The Tmax (male SD rat, PO 10 mg/kg, Skin) was 30 min, the half-life (male SD rat, PO 10 mg/kg, Skin) was 516 min and the AUC0-24 [10] was 73082 ng·h/g. For the same compound, the AUC0-inf [10] was 73697 ng·h/g, the AUC0-last [10] was 73822 ng·h/g and the Cmax [10] was 16500 ng/g. For the same compound, the Tmax [10] was 30 min, the half-life [10] was 205 min and the AUC0-24 [11] was 13189 ng·h/g. It also gave an AUC0-inf [11] of 13631 ng·h/g, an AUC0-last [11] of 13189 ng·h/g and a Cmax [11] of 4230 ng/g. It also gave a Tmax [11] of 30 min, a half-life [11] of 295 min and a Kp (male, SD, bladder / plasma, po, male SD rat, PO 10 mg/kg, Bladder, Tissue AUC0-last/Plasma AUC0-last, read-out: AUC Ratio) of 3.37. The Kp (male, SD, bone marrow / plasma, po, male SD rat, PO 10 mg/kg, Bone Marrow, Tissue AUC0-last/Plasma AUC0-last, read-out: AUC Ratio) was 3.97, the Kp (male, SD, large intestine / plasma, po, male SD rat, PO 10 mg/kg, Large intestine, Tissue AUC0-last/Plasma AUC0-last, read-out: AUC Ratio) was 16.7 and the Kp (male, SD, liver / plasma, po, male SD rat, PO 10 mg/kg, Liver, Tissue AUC0-last/Plasma AUC0-last, read-out: AUC Ratio) was 7.5. For the same compound, the Kp (male, SD, lung / plasma, po, male SD rat, PO 10 mg/kg, Lung, Tissue AUC0-last/Plasma AUC0-last, read-out: AUC Ratio) was 1.82, the Kp (male, SD, skin / plasma, po, male SD rat, PO 10 mg/kg, Skin, Tissue AUC0-last/Plasma AUC0-last, read-out: AUC Ratio) was 2.91 and the Kp (male, SD, small intestine / plasma, po, male SD rat, PO 10 mg/kg, Small intestine, Tissue AUC0-last/Plasma AUC0-last, read-out: AUC Ratio) was 27. For the same compound, the Kp (male, SD, spleen / plasma, po, male SD rat, PO 10 mg/kg, Spleen, Tissue AUC0-last/Plasma AUC0-last, read-out: AUC Ratio) was 4.88, the Kp (male, Sprague-Dawley, epididymis and testis, po, male SD rat, PO 10 mg/kg, Epididymis & Testis, Tissue AUC0-last/Plasma AUC0-last, read-out: AUC Ratio) was 1.91 and the Kp (male, Sprague-Dawley, eyeball (left and right), po, male SD rat, PO 10 mg/kg, Eyeball (left and right), Tissue AUC0-last/Plasma AUC0-last, read-out: AUC Ratio) was 0.492. It also gave a Kp (male, Sprague-Dawley, fat, po, male SD rat, PO 10 mg/kg, Fat, Tissue AUC0-last/Plasma AUC0-last, read-out: AUC Ratio) of 0.513, a Kp (male, Sprague-Dawley, heart, po, male SD rat, PO 10 mg/kg, Heart, Tissue AUC0-last/Plasma AUC0-last, read-out: AUC Ratio) of 1.11 and a Kp (male, Sprague-Dawley, kidney (left and right), po, male SD rat, PO 10 mg/kg, Kidney (left and right), Tissue AUC0-last/Plasma AUC0-last, read-out: AUC Ratio) of 8.35. For the same compound, the AUC(0-t) (male, Sprague-Dawley, po, male SD rat, PO 10 mg/kg, read-out: AUC0-24) was 2910 ng·h/mL, the AUC(0-t) (male, Sprague-Dawley, po, male SD rat, PO 10 mg/kg, read-out: AUC0-last) was 2700 ng·h/mL and the Kp (male, Sprague-Dawley, testis, oral, SD rat, Testis, read-out: Tissue/Plasma Ratio (AUCinf)) was 1.6. It also gave a Cmax [12] of 976 ng/g, a Tmax [12] of 30 min and a half-life [12] of 161 min.
